Assay results taken from patent publication US11807625B2, “Capsid inhibitors for the prevention of HIV” (Gilead Sciences, Inc., priority 2019, dated 2023).
Read-outs that look alike come from different tables or passages of the source.

Experiment: PK of compound of Formula (Ia) after single subcutaneous dose of solution formulations in beagle dogs
Type: in vivo
Protocol: Formulations containing the compound of Formula (Ia), or a pharmaceutically acceptable salt thereof, were prepared as solutions and optionally administered subcutaneously or intramuscularly to rats, rabbits, and/or dogs.
(§1) A solution of about 400 mg/mL of the compound of Formula (Ia) having 17.00 w/w % water, 36.40 w/w % PEG 300, 35.20 w/w % of a sodium salt of a compound of Formula (Ia), 5.00 w/w % ethanol, and 6.40 w/w % poloxamer 188 was prepared. The solution was administered subcutaneously to male beagle dogs at a dose level of about 12 mg/kg and male Wistar Han rats at a dose level of about 50 mg/kg. The pharmacokinetic profiles were determined, and the results for dogs are summarized in Table and Table, while the results for rats are summarized in Table and Table below.
as §1, with “500” for “400”, “14.06” for “17.00”, “30.12” for “36.40”
A solution of about 300 mg/mL of the compound of Formula (Ia) having 23.33 w/w % water, 48.99 w/w % PEG 300, 26.47 w/w % of a sodium salt of a compound of Formula (Ia), and 1.21 w/w % poloxamer 188 was prepared. The solution was administered subcutaneously to male beagle dogs at a dose level of about 6 mg/kg and male Wistar Han rats at a dose level of about 50 mg/kg. The pharmacokinetic profiles were determined, and the results for dogs are summarized in Table and Table, while the results for rats are summarized in Table and Table below.
as §1, with “18.80” for “17.00”, “40.25” for “36.40”, “34.38” for “35.20”, “1.57” for “6.40”
as §1, with “500” for “400”, “16.29” for “17.00”, “34.88” for “36.40”, “41.92” for “35.20”, “1.91” for “6.40”
as §1, with “20.90” for “17.00”, “44.72” for “36.40”, “and 34.38” for “35.20”, “(Ia)” for “(Ia), 5.00 w/w % ethanol, and 6.40 w/w % poloxamer 188”
A solution of about 400 mg/mL of the compound of Formula (Ia) having 19.90 w/w % water, 42.59 w/w % PEG 300, 34.38 w/w % of a sodium salt of a compound of Formula (Ia), and 3.13 w/w % poloxamer 188 was prepared. The solution was administered subcutaneously to male beagle dogs at a dose level of about 12 mg/kg and male Wistar Han rats at a dose level of about 50 mg/kg. […]

[1] = male, beagle, dog, plasma, sc, 6 mg/kg, individual dogs, SC 6 mg/kg, solution V, 300 mg/mL
[2] = male, beagle, dog, plasma, sc, 6 mg/kg, mean, n = 3 dogs, SC 6 mg/kg, solution V, 300 mg/mL
[3] = male, beagle, dog, plasma, sc, 6 mg/kg, mean ± SD, n = 3 dogs, SC 6 mg/kg, solution V, 300 mg/mL

SMILES: CC(C)(C#Cc1ccc(-c2ccc(Cl)c3c(NS(C)(=O)=O)nn(CC(F)(F)F)c23)c([C@H](Cc2cc(F)cc(F)c2)NC(=O)Cn2nc(C(F)(F)F)c3c2C(F)(F)[C@@H]2C[C@H]32)n1)S(C)(=O)=O [compound of Formula (Ia)]
- Plasma concentration (beagle dogs, SC 12 mg/kg, 400 mg/mL solution W (5.00% ethanol, 1.57% poloxamer 188), 1.00 h, animals #1-#3): BLQ
- concentration at 3 h [1]: 2.26 nM
- concentration at 3 h (male, beagle, dog, plasma, sc, 6 mg/kg, mean (dog #2 BLQ), SC 6 mg/kg, solution V, 300 mg/mL): 2.75 nM
- concentration at 8 h [1]: 8.26 nM
- concentration at 8 h [2]: 10.4 nM
- concentration at 24 h [1]: 22.3 nM
- concentration at 24 h [2]: 23.5 nM
- concentration at 48 h [1]: 37.1 nM
- concentration at 48 h [2]: 31.5 nM
- concentration at 72 h [1]: 32.8 nM
- concentration at 72 h [2]: 31.3 nM
- concentration at 96 h [1]: 39.5 nM
- concentration at 96 h [2]: 32.6 nM
- concentration at 168 h [1]: 41.8 nM
- concentration at 168 h [2]: 39.2 nM
- concentration at 336 h [1]: 99.2 nM
- concentration at 336 h [2]: 129 nM
- concentration at 504 h [1]: 122 nM
- concentration at 504 h [2]: 151 nM
- concentration at 672 h [1]: 95.3 nM
- concentration at 672 h [2]: 122 nM
- concentration at 840 h [1]: 53.3 nM
- concentration at 840 h [2]: 58.9 nM
- concentration at 1008 h [1]: 29.1 nM
- concentration at 1008 h [2]: 30.2 nM
- concentration at 1344 h [1]: 26.9 nM
- concentration at 1344 h [2]: 23.8 nM
- concentration at 1680 h [1]: 13.7 nM
- concentration at 1680 h [2]: 12.3 nM
- concentration at 2016 h (male, beagle, dog, plasma, sc, 6 mg/kg, 2016 h, mean, n = 3 dogs, SC 6 mg/kg, solution V, 300 mg/mL): 8.5 nM
- concentration at 2352 h [1]: 4.5 nM
- concentration at 2352 h [2]: 4.7 nM
- concentration at 2688 h [1]: 2.1 nM
- concentration at 2688 h [2]: 2.7 nM
- concentration at 3024 h [1]: 2.5 nM
- concentration at 3024 h [2]: 2.3 nM
- concentration at 3360 h [1]: 1.5 nM
- concentration at 3360 h [2]: 1.3 nM
- AUC(0-inf) [3]: 113 ± 12 µM·h
- Cmax [3]: 155 ± 30 nM
- Tmax [3]: 18.7 ± 4.04 days
- half-life [3]: 25.5 days
- AUC(0-t) (male, beagle, dog, plasma, sc, 6 mg/kg, mean ± SD, n = 3 dogs, SC 6 mg/kg, solution V, 300 mg/mL, read-out: AUC0-24 h): 0.304 ± 0.028 µM·h
- AUC(0-t) (male, beagle, dog, plasma, sc, 6 mg/kg, mean ± SD, n = 3 dogs, SC 6 mg/kg, solution V, 300 mg/mL, read-out: AUC0-168 h): 5.07 ± 0.5 µM·h
- AUC(0-t) (male, beagle, dog, plasma, sc, 6 mg/kg, mean ± SD, n = 3 dogs, SC 6 mg/kg, solution V, 300 mg/mL, read-out: AUC0-672 h): 65.6 ± 9.9 µM·h
- AUC(0-t) (male, beagle, dog, plasma, sc, 6 mg/kg, mean ± SD, n = 3 dogs, SC 6 mg/kg, solution V, 300 mg/mL, read-out: AUC0-1344 h): 97.4 ± 12.7 µM·h
- AUC(0-t) (male, beagle, dog, plasma, sc, 6 mg/kg, mean ± SD, n = 3 dogs, SC 6 mg/kg, solution V, 300 mg/mL, read-out: AUC0-1680 h): 103 ± 12 µM·h
